Measurements from patent US20230129034A1, “TREATMENT OF DISEASE WITH ESTERS OF SELECTIVE RXR AGONISTS” (Io Therapeutics, Inc., priority 2017, published 2023).
Entries after “also recorded” stand apart in the source; their conditions may differ.

Assays:
EAE in SJL mice = test: EAE in SJL mice, PLP peptide induced; assay type: in vivo; details: for symptoms of EAE in SJL mice: 50 µg i.p. every other day from day 7
Procedure: To determine whether a RXR agonist or an ester of a RXR agonist can attenuate multiple sclerosis, SJL mice were immunized to induce EAE by s.c. injection at the base of their spine with 200 µL of adjuvant containing 200 µg proteolipid proteins (139-151) (PLP peptide; Peptides International, Louisville, KY) and 400 µg of non-viable M. tuberculosis H37 desiccate emulsified in a mixture of incomplete Freund’s adjuvant and PBS. Mice were also given 150 ng of pertussis toxin in PBS i.p. on the same day as PLP emulsion injection and 2 days later. […] Mice were scored using the scale described in Example 6.

RXRβ = biological target: T1, RXRβ (Homo sapiens, UniProt P28702); test: RXR homodimer transactivation assay (rCRBPII/RXRE-tk-Luc reporter, CV-1 cells); assay type: cell-based
T1 construct: an expression construct including a full length RXRα, RXRβ, or RXRy; expressed in transfected cells; host or cells: CV-1
T1 sequence (P28702 1-533): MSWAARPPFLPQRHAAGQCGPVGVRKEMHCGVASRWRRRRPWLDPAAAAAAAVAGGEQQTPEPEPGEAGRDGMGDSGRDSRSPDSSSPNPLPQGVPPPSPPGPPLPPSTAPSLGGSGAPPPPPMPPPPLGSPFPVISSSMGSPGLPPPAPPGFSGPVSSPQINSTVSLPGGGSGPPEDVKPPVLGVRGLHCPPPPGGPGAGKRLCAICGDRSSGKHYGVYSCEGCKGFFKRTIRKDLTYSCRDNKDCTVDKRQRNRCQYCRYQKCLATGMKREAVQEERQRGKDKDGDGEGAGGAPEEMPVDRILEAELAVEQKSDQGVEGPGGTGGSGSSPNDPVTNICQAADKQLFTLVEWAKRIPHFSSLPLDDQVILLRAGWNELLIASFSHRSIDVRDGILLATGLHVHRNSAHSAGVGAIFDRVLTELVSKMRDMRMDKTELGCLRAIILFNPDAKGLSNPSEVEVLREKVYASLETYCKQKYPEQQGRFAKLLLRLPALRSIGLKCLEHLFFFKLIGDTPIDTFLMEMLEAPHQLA
Excerpt: (§1) Data are mean values ± SE from five independent experiments.

FXR/RXR = biological target: T2, FXR/RXR (Homo sapiens, UniProt P19793); test: Permissive heterodimer transactivation assay, CV-1 cells, 3x(IBABP/IRI)-tk-Luc; assay type: cell-based; details: 20 hr, luciferase vs GW4064
T2 construct: expressed in transfected cells; host or cells: CV-1
Excerpt: (§2) For PPARy: CV-1 cells were transfected with 3x(rAOX/DR1)-tk-Luc reporter gene and an expression vector for PPARy. For FXR:CV-1 cells were transfected with 3x(IBABP/IRI)-tk-Luc reporter gene and vectors for FXR and RXRα. For LXR:CV-1 cells were transfected with 3x(PLTP/LXRE)-tk-Luc reporter gene with vectors for LXRα or LXRβ. For Nurr1: COS7 cells were transfected with 3xNBRE-tk-luc reporter gene and full length Nurr-1 with or without full-length RXRα plasmid. […] Luciferase data were normalized to co-transfected β-gal activity. Luciferase activity was expressed as percent of maximal activity obtained using specific agonists. Rosiglitazone (PPARy), GW4064 (FXR), T0901317 (LXR).

EAE in B6 mice = test: EAE dose titration experiment in B6 mice with spleen and CNS cell analysis; assay type: in vivo; details: for EAE disease overall, dose titration: 50 µg, 100 µg or 200 µg every day from day 8
Procedure: A dose titration experiment was also conducted in EAE mice. EAE was induced in 28 B6 mice with MOG/CFA and PT as above. Mice were scored on day 7 as indicated above and divided into groups by score so means are as equal as possible.
At the completion of the experiment, the vehicle control and 200 µg/day groups were euthanized and spleen and CNS samples obtained.

PPARy/RXR = test: Permissive heterodimer transactivation assay, CV-1 cells, 3x(rAOX/DR1)-tk-Luc; assay type: cell-based; details: 20 hr, luciferase vs rosiglitazone
Excerpt: as §2

RXRα = biological target: T3, RXRα (Homo sapiens, UniProt P19793); test: Competitive displacement of [3H]-9CRA from purified receptor; details: 10 nM [3H]-9CRA; read-out: RXR Binding Affinity Ki (nM) RXRα
T3 construct: an expression construct including a full length RXRα, RXRβ, or RXRy; expressed in transfected cells; host or cells: CV-1
T3 sequence (P19793 1-462): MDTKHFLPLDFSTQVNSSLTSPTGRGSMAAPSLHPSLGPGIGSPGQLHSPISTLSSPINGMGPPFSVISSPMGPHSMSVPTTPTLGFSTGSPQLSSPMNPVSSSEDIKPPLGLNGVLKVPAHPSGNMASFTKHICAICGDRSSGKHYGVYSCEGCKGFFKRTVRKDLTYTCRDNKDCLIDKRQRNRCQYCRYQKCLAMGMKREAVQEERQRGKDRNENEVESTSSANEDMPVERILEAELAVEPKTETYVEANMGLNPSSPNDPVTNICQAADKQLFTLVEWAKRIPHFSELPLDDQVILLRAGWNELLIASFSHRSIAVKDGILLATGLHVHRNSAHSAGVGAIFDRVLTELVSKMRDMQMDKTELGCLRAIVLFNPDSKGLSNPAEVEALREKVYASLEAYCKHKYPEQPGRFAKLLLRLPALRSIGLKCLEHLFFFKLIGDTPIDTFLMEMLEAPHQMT
Excerpt: (§3) Standard errors (±) among independent experiments are indicated.

RXRγ = biological target: T4, RXRγ (Homo sapiens, UniProt P48443); test: as above; details: 10 nM [3H]-9CRA; read-out: RXR Binding Affinity Ki (nM) RXRγ
T4 construct: an expression construct including a full length RXRα, RXRβ, or RXRy; expressed in transfected cells; host or cells: CV-1
T4 sequence (P48443 1-463): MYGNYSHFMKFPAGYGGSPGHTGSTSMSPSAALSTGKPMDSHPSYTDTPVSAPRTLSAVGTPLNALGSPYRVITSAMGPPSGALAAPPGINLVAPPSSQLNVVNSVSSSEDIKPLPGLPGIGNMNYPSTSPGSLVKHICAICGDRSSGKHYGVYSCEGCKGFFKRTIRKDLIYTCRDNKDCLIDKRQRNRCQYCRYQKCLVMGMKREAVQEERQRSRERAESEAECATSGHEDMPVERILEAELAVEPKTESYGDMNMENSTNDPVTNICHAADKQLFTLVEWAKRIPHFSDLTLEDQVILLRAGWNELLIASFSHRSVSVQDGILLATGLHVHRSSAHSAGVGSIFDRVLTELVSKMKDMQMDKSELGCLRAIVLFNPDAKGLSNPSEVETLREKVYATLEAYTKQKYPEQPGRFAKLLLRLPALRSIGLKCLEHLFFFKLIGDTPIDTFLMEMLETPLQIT
Excerpt: as §3

RARγ = biological target: T5, RARγ (Homo sapiens, UniProt P13631); test: RAR transactivation assay (ER-RAR fusion, ERE-tk-Luc reporter, CV-1 cells); assay type: cell-based; details: 20 hours, luciferase activity
T5 construct: expressed in transfected cells; host or cells: CV-1
Excerpt: as §1

RARβ = biological target: T6, RARβ (Homo sapiens, UniProt P10826); test: as above; assay type: cell-based; details: 20 hours, luciferase activity
T6 construct: expressed in transfected cells; host or cells: CV-1
Excerpt: as §1

[1] = 50 µg i.p. every other day from day 7, n=6
[2] = 200 µg/day, restimulation with PMA/Ionomycin

T2 sequence (Q96RI1 whole entry partner, one chain of several): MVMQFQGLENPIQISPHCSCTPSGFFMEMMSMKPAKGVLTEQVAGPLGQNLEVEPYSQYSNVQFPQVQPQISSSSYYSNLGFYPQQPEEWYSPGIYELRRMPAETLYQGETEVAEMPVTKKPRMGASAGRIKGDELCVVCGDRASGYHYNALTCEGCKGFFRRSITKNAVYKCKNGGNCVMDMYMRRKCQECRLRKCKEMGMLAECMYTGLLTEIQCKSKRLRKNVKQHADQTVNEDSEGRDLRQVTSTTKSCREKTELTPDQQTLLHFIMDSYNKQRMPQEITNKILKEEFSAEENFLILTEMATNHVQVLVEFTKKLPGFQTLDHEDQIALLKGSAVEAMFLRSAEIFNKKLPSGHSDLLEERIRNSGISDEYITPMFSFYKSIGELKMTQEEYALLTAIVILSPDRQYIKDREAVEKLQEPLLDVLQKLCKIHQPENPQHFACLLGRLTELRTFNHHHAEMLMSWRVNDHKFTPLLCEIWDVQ
T6 sequence (P10826 183-417 limits assumed, species assumed): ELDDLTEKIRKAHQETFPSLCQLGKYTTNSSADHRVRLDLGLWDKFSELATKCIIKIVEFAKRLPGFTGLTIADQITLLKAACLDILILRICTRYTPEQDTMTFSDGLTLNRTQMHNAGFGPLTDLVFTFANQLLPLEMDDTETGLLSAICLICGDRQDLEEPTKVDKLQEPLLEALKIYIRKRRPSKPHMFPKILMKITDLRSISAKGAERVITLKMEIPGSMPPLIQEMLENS
T5 sequence (P13631 185-419 limits assumed, species assumed): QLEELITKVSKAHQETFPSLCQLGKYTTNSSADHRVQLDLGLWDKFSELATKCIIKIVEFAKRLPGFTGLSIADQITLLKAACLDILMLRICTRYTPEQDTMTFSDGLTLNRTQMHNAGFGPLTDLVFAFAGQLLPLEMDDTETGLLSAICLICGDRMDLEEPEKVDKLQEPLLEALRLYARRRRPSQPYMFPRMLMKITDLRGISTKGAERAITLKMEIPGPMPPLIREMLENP

## CC(/C=C/[C@@H]1C[C@]1(C)c1ccc2c(c1)C(C)(C)CCC2(C)C)=C\C(=O)O [IRX4204, 3,7-dimethyl-6(S),7(S)-methano,7-[1,1,4,4-tetramethyl-1,2,3,4-tetrahydronaphth-7-yl]2(E),4(E) heptadienoic acid]
EAE in SJL mice
  symptoms of EAE in SJL mice: significantly reduces the symptoms of EAE
EAE in SJL mice; [1]
  Death from Disease: 0/6
  Disease Incidence: 4/6
  Mean Maximum Score: 1.5 ± 1.4
RXRβ; CV-1, read-out: EC90 with RXRβ
  EC90: ~0.001 µM
FXR/RXR
  activation of FXR/RXR heterodimer: not to transactivate; also recorded: does not activate
EAE in B6 mice
  EAE disease overall, dose titration: significantly less disease overall
EAE in B6 mice; 200 µg/day
  CCR6 expression on CD4 T cells, spleen: lowered
  co-expression of IFNg and IL-17A by CD4 T cells in CNS: not significantly different between groups
  frequency of CD4+ CD25hi cells, spleen: not altered
  number of CD4+ CD25hi cells, spleen: reduced
  total number of effector and memory CD4 T cells (CD44), spleen: decreased
  total number of infiltrating CD4 T cells in the CNS: reduced
  total number of recently activated CD4 T cells (CD69 and CD44), spleen: also decreased
EAE in B6 mice; [2]
  IFNγ production by CNS infiltrating lymphocytes: significantly reduced
  TNF production by CNS infiltrating lymphocytes: significantly reduced

## CCOC(=O)/C=C(C)/C=C/[C@@H]1C[C@]1(C)c1ccc2c(c1)C(C)(C)CCC2(C)C [IRX4204EE, 3,7-dimethyl-6(S),7(S)-methano,7-[1,1,4,4-tetramethyl-1,2,3,4-tetrahydronaphth-7-yl]2(E),4(E) heptadienoic ethyl ester]
PPARy/RXR
  activation of PPARy/RXR heterodimer: very little activity
EAE in SJL mice
  symptoms of EAE in SJL mice: greater efficacy than IRX4204
RXRα
  Ki: > 1000 nM
RXRγ
  Ki: > 1000 nM
RXRβ; CV-1 cells, 20 hours, luciferase activity
  EC50: > 1000 nM
FXR/RXR
  activation of FXR/RXR heterodimer: very little activity
RARγ
  EC50: > 1000 nM
RARβ
  EC50: > 1000 nM
EAE in B6 mice
  EAE disease overall, dose titration: more active than IRX4204 at each of the doses tested
